Measurements published in patent US9399631B2, “Polyphenol proteasome inhibitors, synthesis, and methods of use” (UNIVERSITY OF SOUTH FLORIDA, priority 2003, dated 2016).
pIC50: −log10 of the molar value. Where a SMILES comes first, the peptide text is derived from it. [ ]: non-standard residue; d: D form. Nle = CCCC[C@H](N)C(=O)O

Key:
[1] = biological target: T1, 20S eukaryotic proteasome (Oryctolagus cuniculus, UniProt G1T4Q9); assay: Inhibition of chymotrypsin-like activity of purified eukaryotic 20S proteasome (Suc-Leu-Leu-Val-Tyr-AMC); format: biochemical, rabbit
T1 construct: purchased BOSTON BIOCHEM (Cambridge, Mass.)
T1 sequence (G1T4Q9 1-263): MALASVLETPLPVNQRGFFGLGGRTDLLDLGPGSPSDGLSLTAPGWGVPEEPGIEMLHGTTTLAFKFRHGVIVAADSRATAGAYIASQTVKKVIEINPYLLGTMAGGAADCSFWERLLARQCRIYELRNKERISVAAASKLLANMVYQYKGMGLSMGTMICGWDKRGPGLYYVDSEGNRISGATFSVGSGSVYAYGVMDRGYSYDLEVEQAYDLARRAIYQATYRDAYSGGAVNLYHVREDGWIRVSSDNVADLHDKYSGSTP
Protocol: Materials. Highly purified tea polyphenols (−)-EGCG (>95%), (−)-GCG (>98%), (−)-ECG (>98%), (−)-CG (>98%), fetal calf serum, propidium iodide, 3-[4,5-dimethylthiazol-2-yl]-2,5-diphenyltetrazolium bromide (MTT), RNase A, and DMSO were purchased from Sigma (St. Louis, Mo.). (+)-EGCG, benzyl-protected-(+)-EGCG, (+)-GCG, (−)-EGCG-amide, and (+)-EGCG-amide were prepared by enantioselective synthesis (see below). Purified 20S eukaryotic proteasome from rabbit was purchased from BOSTON BIOCHEM (Cambridge, Mass.). Purified 20S prokaryotic proteasome (Methanosarcina thermophile, Recombinant, E. coli) was purchased from CALBIOCHEM (La Jolla, Calif.). Fluorogenic peptide substrates Suc-Leu-Leu-Val-Tyr-AMC (for the proteasomal chymotrypsin-like activity) was obtained from Calbiochem (La Jolla, Calif.). RPMI 1640 medium, Dulbecco's modified Eagle's medium, MEM non-essential amino acids solution, MEM-sodium pyruvate solution, penicillin, and streptomycin were from INVITROGEN (Carlsbad, Calif.). Monoclonal antibody to p27^Kip was purchased from PHARMINGEN (San Diego, Calif.); polyclonal antibodies to IκB-α, Bax and actin, and monoclonal antibody to ubiquitin were from SANTA CRUZ Biotechnology Inc. (Santa Cruz, Calif.).
(§1) Inhibition of purified 20S proteasome activity by natural or synthetic GTPs. Purified prokaryotic (0.5 μg) or eukaryotic (0.02 μg) 20S proteasome was incubated with 20 μM fluorogenic peptide substrate, Suc-Leu-Leu-Val-Tyr-AMC for 30 min at 37° C. in […] of assay buffer (50 mM Tris-HCl, pH 7.5), with or without a natural or synthetic tea polyphenol. After incubation, production of hydrolyzed 7-amido-4-methyl-coumarin (AMC) groups was measured using a multi-well plate VERSAFLUOR Fluorometer with an excitation filter of 380 nm and an emission filter of 460 nm (BIO-RAD), and a multi-well plate reader Wallac 1420 VICTORTM^2 with an excitation filter of 355 nm and an emission filter of 460 nm (EG&G WALLAC).
Purified prokaryotic (0.5 μg) or eukaryotic (0.02 μg) 20S proteasome was incubated with 20 μM fluorogenic peptide substrate, Suc-Leu-Leu-Val-Tyr-AMC for 30 minutes at 37° C. in 100 μl of assay buffer ([…] Tris-HCl, pH 7.5), with or without a natural or synthetic tea polyphenol. After incubation, production of hydrolyzed AMC groups was measured using a multi-well plate VERSAFLUOR Fluorometer with an excitation filter of 380 nm and an emission filter of 460 nm.
(−)-EGCG at 1 μM was incubated with eukaryotic 20S proteasome (0.02 μg) and suc-LLVY-AMC (20 μM) for the times indicated in FIG. 7. The chymotrypsin activity was measured and graphed in FIG. 7. Values are means from 4 independent experiments, and error bars represent standard deviations.
In the second experiment (−)-EGCG at 1 μM was pre-incubated with (SDS-pre) or without 0.01% SDS (no SDS) for 1 hour, followed by addition of eukaryotic 20S proteasome (0.02 μg) and suc-LLVY-AMC (20 μM). “SDS-post” represents the same treatment as “no SDS” except 0.01% SDS was added 1 hour after addition of the proteasome, (−)-EGCG and the substrate. AMC liberation was measured by fluorescence at each indicated time point and the percentage of chymotrypsin activity was determined. Values are means from 4 independent experiments, and error bars represent standard deviations.

LNCaP cells [2] = assay: Soft agar colony formation assay; format: cell-based, human; settings: 50 μM, 14 day-incubation
Protocol: Soft Agar Assay. The soft agar assay was performed according to Smith et al. (Smith, D. M. et al. Mol Med, 2002, 8:382-392) with a few modifications. In brief, in a six-well plate, a bottom feeder layer (0.6% agar) was prepared with DMEM media containing 10% fetal bovine serum, 100 units/ml penicillin, and 100 μg/ml streptomycin. A top layer (0.3% agar) was prepared with DMEM and the same media as described above but containing 2×10^4 prostate cancer LNCaP cells and indicated analogs or DMSO as a control. Plates were incubated at 37° C. in 5% CO2 in a humidified incubator for two weeks. MTT (1 mg/ml) was added to each well and incubated overnight to allow complete formation of purple formazan crystals. The plates were then scanned and photographed, and the number of colonies was quantified by QUANTITY ONE v.4.0.3 software (Bio-Rad, Hercules, Calif.).
The […] effects of several GTP analogs were investigated with a soft agar assay that measures the transforming activity of human tumor cells. LNCaP cells were plated in soft agar (see Materials and Methods) along with 50 μM of GTP-1, -2, -3, (−)-EGCG (as a positive control; Smith, D. M. et al. Mol Med, 2002, 8:382-392, 2002), or the solvent (as a negative control), followed by a 14 day-incubation to allow for colony formation (FIGS. 12A and 12B).
In a second experiment, LNCaP cells were plated in soft agar along with 10 μM of each indicated GTP or solvent (H2O), followed by a 14 day-incubation to allow for colony formation (FIG. 21A). […] Colonies were quantified with an automated counter and presented as mean values from triplicate independent experiments. Error bars denote standard deviations.

purified 20S proteasome [3] = biological target: T2, purified 20S proteasome (UniProt G1T4Q9); assay: Inhibition of chymotrypsin-like activity of purified 20S proteasome (source not stated); format: biochemical; settings: chymotrypsin-like activity of purified 20S proteasome
T2 construct: IC50; other: chymotrypsin-like activity of purified 20S proteasome
Protocol: as §1

LNCaP cells [4] = assay: Western blot of proteasome target proteins in LNCaP cells; format: cell-based, human; settings: 50 μM, 3 to 12 hours
Protocol: (§2) Cell Culture, Cell Extract Preparation, and Western Blot Assay. Human leukemia Jurkat T and prostate cancer LNCaP cells were cultured in RPMI 1640 medium supplemented with 10% fetal calf serum, 100 units/ml of penicillin, and 100 μg/ml streptomycin. Human immortalized, non-transformed NK cells (YT cell line) (38) were cultured in RPMI 1640 supplemented with 1 mM MEM sodium pyruvate solution, 0.1 mM MEM non-essential amino acids solution, 10% fetal calf serum. 100 units/ml penicillin, and 100 μg/ml streptomycin. Normal (WI-38) and simian virus 40 (SV40)-transformed (VA-13) human fibroblasts were grown in Dulbecco's modified Eagle's medium supplemented with 10% fetal calf serum, 100 units/ml of penicillin and 100 μg/ml of streptomycin. All cells were maintained at 37° C. in a humidified incubator with an atmosphere of 5% CO2. A whole cell extract was prepared in accordance with An et al. (An, B. et al. Cell Death Differ, 1998, 5:1062-75). Briefly, cells were harvested, washed with PBS twice, and homogenized in a lysis buffer [50 mM Tris-HCl (pH 8.0), 5 mM EDTA, 150 mM NaCl, 0.5% NP-40, 0.5 mM phenylmethylsulfonyl fluoride, and 0.5 mM dithiothreitol] for 30 min at 4° C. Afterwards, lysates were centrifuged at 12,000×g for 15 min at 4° C., and the supernatants were collected as whole cell extracts. Equal amounts of protein extract (60 μg) were resolved by SDS-polyacrylamide gel electrophoresis and transferred to a nitrocellulose membrane using a Semi-Dry Transfer system (BIO-RAD, Hercules, Calif.). Jurkat T, LNCaP, or DU-145 cells were treated with various concentrations of synthetic or natural tea polyphenols for indicted hours. The enhanced chemiluminescence (ECL) Western blot analysis was then performed using specific antibodies to the proteins of interest (p^27kip, IκB-α, PARP, Bax or actin). The ratio of p27 or IκB-α to the corresponding actin was determined by scanning intensities of the protein bands.
To investigate whether (−)-EGCG-amide and (+)-EGCG-amide inhibit intact tumor cell proteasome activity, human prostate cancer LNCaP cells were treated with 25 μM of (−)- or (+)-EGCG-amide for up to 9 hours, followed by measurement of p27, IκB-α and Bax, three well-known proteasome target proteins (Pagano, M. et al. Science, 1995, 269:682-685; An, B. et al. Cell Death Differ, 1998, 5:1062-75; Sun, J. et al. Cancer Res, 2001, 61:1280-1284; Palombella, V. J. et al. Cell, 1994, 78:773-785; Thompson, J. E. et al. Cell, 1995, 80:573-582; Perkins, N. D. Trends Biochem Sci, 2000, 25:434-440; Chang, Y. C. et al. Cell Growth Differ, 1998, 9:79-84; Li, B. and Dou, Q. P. Proc Natl Acad Sci USA, 2000, 97:3850-3855; Nam, S. et al. Cancer Epidemiol Biomarkers Prey, 2001, 10:1083-1088). In this experiment (−)-EGCG and (+)-EGCG were used as positive controls.
Having determined that the synthetic GTP-1 to −5 analogs are able to inhibit the proteasomal chymotrypsin-like activity in vitro (FIG. 8), these compounds were investigated for their potency in inhibiting intact tumor cellular proteasome activity. To do so, human prostate cancer LNCaP cells were treated with one of these compounds for the indicated hours, followed by measuring levels of proteasome target proteins, p27, IκB-α, and Bax, and polyubiquitinated proteins.

VA-13 cells = assay: Western blot of p27 in SV40-transformed VA-13 fibroblasts; format: cell-based, human; settings: 25 μM, 12 hours
Protocol: as §2
Normal WI-38 and SV40-transformed VA-13 cell lines were treated with 25 μM of (−)-EGCG, (−)-EGCG-amide, (+)-EGCG, (+)-EGCG-amide, or GTP-1 for either 12 hours or 36 hours.

purified 20S proteasome [5] = biological target: purified 20S proteasome (UniProt Q9P992); assay: Inhibition of chymotrypsin-like activity of purified 20S proteasome (source not stated); format: biochemical; design: other: 1 μM; other: 10 μM
Protocol: as §1

purified 20S proteasome (UniProt Q9P992), sequence (Q9P992 whole entry): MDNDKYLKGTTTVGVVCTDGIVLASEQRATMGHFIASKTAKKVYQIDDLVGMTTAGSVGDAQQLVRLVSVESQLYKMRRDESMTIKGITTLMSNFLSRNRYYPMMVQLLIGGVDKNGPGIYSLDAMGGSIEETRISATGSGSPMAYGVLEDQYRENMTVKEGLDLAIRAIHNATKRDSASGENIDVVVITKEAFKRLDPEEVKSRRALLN

Work on `O=C(O[C@@H]1Cc2c(O)cc(O)cc2O[C@@H]1c1ccc(O)c(O)c1)c1cc(O)c(O)c(O)c1` [(−)-ECG] yielded a pIC50 ([1]; chymotrypsin-like activity, rabbit 20S proteasome) of 6.15.
`O=C(N[C@H]1CCCC[C@H]1NC(=O)c1cc(O)c(O)c(O)c1)c1cc(O)c(O)c(O)c1` [GTP-2] was tested, and the “colony formation (LNCaP transformation capability)” value (“colony formation” below) (LNCaP cells [2]) was “completely blocked LNCaP transformation capability” and the pIC50 (purified 20S proteasome [3]) was 5.60.
For `O=C(N[C@H]1CCCC[C@@H]1NC(=O)c1cc(O)c(O)c(O)c1)c1cc(O)c(O)c(O)c1` [GTP-3], the “colony formation” value (LNCaP cells [2]) was “completely blocked LNCaP transformation capability”, the pIC50 (purified 20S proteasome [3]) was 5.82 and the “levels of Bax protein” value (LNCaP cells [4]) was “transiently increased levels of Bax protein”. The “levels of polyubiquitinated proteins” value (LNCaP cells [4]) was “greatly increased levels of p27, IκB-α, and ubiquitinated proteins” and the “levels of proteasome target proteins (p27, IκB-α)” value (LNCaP cells [4]) was “greatly increased levels of p27, IκB-α, and ubiquitinated proteins”.
`O=c1c(-c2ccc(O)cc2)coc2cc(O)cc(O)c12` [genistein] was tested, and the pIC50 ([1]; chymotrypsin-like activity of purified 20S proteasome) was 4.59.
In the case of `O=C(O[C@H]1CCCC[C@H]1OC(=O)c1cc(O)c(O)c(O)c1)c1cc(O)c(O)c(O)c1` [GTP-1], the “levels of p27 protein” value (VA-13 cells) was “significantly increased levels of p27 protein”, the “colony formation” value (LNCaP cells [2]) was “completely blocked LNCaP transformation capability” and the pIC50 (purified 20S proteasome [3]) was 5.72. The “levels of polyubiquitinated proteins” value (LNCaP cells [4]) was “caused accumulation of polyubiquitinated proteins” and the “levels of proteasome target proteins (p27, IκB-α)” value (LNCaP cells [4]) was “increased levels of p27, IκB-α, and Bax proteins at as early as 3 hours”.
In the case of `CCCC[C@@H](C=O)NC(=O)[C@H](CC(C)C)NC(=O)[C@H](CC(C)C)NC(C)=O` [LLnL, reference compound] (Ac-Leu-Leu-[Nle]-aldehyde), the “inhibition of proteasomal activity” value (purified 20S proteasome [5]; 1 μM) was 20% and the “inhibition of proteasomal activity” value (purified 20S proteasome [5]; 10 μM) was 70%.
